Experimental data from patent US4847302A, “Use of certain compounds in livestock food as growth promotants for better feed utilization and improved carcass composition” (Merck & Co., Inc., priority 1988, dated 1989).
Like-named read-outs stand apart in the source and are kept apart here.

Key:
[1] = tested on: Isolated Swine Adipocytes; test: Stimulation of lipolysis (glycerol production) in isolated swine adipocytes; assay type: cell-based; details: for activation at 0.01 µM / activation at 0.05 µM / activation at 0.25 µM: Sus scrofa, Adipocyte, 2 h, read-out: percent increase compared to control, glycerol production
Experimental: (§1) Fat was collected from freshly killed animals as follows: epididymal and perirenal fat from 150 to 200 g male rates; perirenal fat from 20 to 25 kg whether lambs, and perirenal and omental fat from 35 to 50 kg gilts. Immediately after collection, fat was placed in a siliconized beaker (all glassware was siliconized) containing Krebs-Ringer bicarbonate solution (KRB; pH 7.4) at 37° C. Fat was transferred to a clean beaker and finely chopped with scissors. Chopped fat was then used as such (whole adipose preparation) or treated with collagenase (isolated adipocytes).
(§2) Chopped fat was placed in a shaker containing 70 ml cell dispersion medium (CDM; 5 mM glucose, 0.1% collagenase, 4% bovine serum albumin (BSA), in KRB) and incubated at 37° C. for 1 hour with gentle shaking. Fat was then filtered to remove clumps and washed 4 times with washing medium (WM; 2.5 mM glucose, 1% BSA, in KRB) and 1 time with final suspension medium (FSM; 2.5 mM glucose, 2% essentially fatty acid free BSA, in KRB). Isolated adipocytes were then resuspended in the required amount of FSM (1 ml/flask, 3 flasks/treatment).
(§3) Whole adipose tissue from the rat (0.3 ml) or isolated adipocytes from sheep or swine (1 ml) were placed in plastic scintillation vials containing FSM (1.7 or 1 ml, respectively) and test compounds, and incubated at 37° C. for 2 hours. […] Isoproterenol, at the same concentrations, was used as a positive control. After incubation, media was removed and assayed for glycerol by a fluorometric modification of the method of Wieland (1974. Glycerol UV-method. pp. 1404. In: Bergmeyer (Ed.) Methods of Enzymatic Analysis. Verlag Chemie Weinham, Academic Press, New York).

[2] = tested on: Isolated Chicken Hepatocytes; test: Inhibition of lipogenesis (14C acetate incorporation) in isolated chicken hepatocytes; assay type: cell-based; details: for inhibition at 0.01 µM / inhibition at 0.05 µM / inhibition at 0.25 µM: Gallus gallus, Hepatocyte, 2 h, read-out: percent change compared to control, 14C acetate incorporation in fatty acids; for percent change compared to control, 14C acetate incorporation in fatty acids: 120 min
Experimental: Determination of anti-lipogenic activity in hepatocytes
Hepatocytes were isolated from chicken liver using the procedure for adipocytes and incubated for 2 hours at 37° C. in the presence of ^14 C acetate and test compounds. […] Isoproterenol, at the same concentrations, was used as a positive control. After incubation, 8 ml Doles reagent (isopropanol:hexane:H2 SO4, 40:10:1) was added and incubation vials were shaken at room temperature for 30 minutes. Vial contents were poured into 50 ml screw-cap tubes. Vials were then rinsed with 6 ml hexane which was poured into the appropriate 50 ml tube. Tubes were shaken by hand, 10 ml H2 O was added, and tubes were shaken again. After phase separation, 2 ml of the upper (hexane) phase was removed to scintillation vials. Hexane was evaporated by a gentle air flow and the remaining lipids were resuspended in 10 ml Scinti Verse II. ^14 C was counted in a Packard liquid scintillation counter. Data are reported as CPM of ^14 C acetate incorporated into total lipids.

Rat Adipose Tissue = test: Stimulation of lipolysis (glycerol production) in chopped rat adipose tissue; assay type: cell-based; details: for activation at 0.01 µM / activation at 0.05 µM / activation at 0.25 µM: Rattus norvegicus, 2 h, read-out: percent increase compared to control, glycerol production
Experimental: as §1
as §3, with “York). […]” for “York).”

[3] = tested on: Isolated Ovine Adipocytes; test: Stimulation of lipolysis (glycerol production) in isolated ovine adipocytes; assay type: cell-based, sheep; details: for activation at 0.01 µM / activation at 0.05 µM / activation at 0.25 µM: Ovis aries, Adipocyte, 2 h, read-out: percent increase compared to control, glycerol production
Experimental: as §1, §2, §3

[4] = In vivo testing in rats: growth, feed conversion and carcass composition; design: species or system rat (male Charles River CD); details: in diet, dose equivalent to 20 ppm clenbuterol (clenbuterol: 10)
Text: Eighty intact, male Charles River CD rats, 75-90 g, were housed and maintained on rat chow and water ad libitum. After four days acclimation ten rats per group were randomized by weight to treatment and pen. Compounds to be tested were premixed and added to ground rat chow using doses equivalent to 20 ppm of clenbuterol on a molecular weight basis. It had previously been determined 10 ppm of clenbuterol was the minimum dose needed to give maximum improvements in gain and feed conversion. Therefore, the results of any compound tested should cause responses similar to clenbuterol if the compound has half or more the activity of clenbuterol.

CC(C)NCC(O)c1ccc(O)c(O)c1 (centres unmarked) [Isoproterenol]
activation at 0.01 µM ([1]; Test 1, 0.01 μM): 40% | activation at 0.05 µM ([1]; Test 1, 0.05 μM): 140% | activation at 0.25 µM ([1]; Test 1, 0.25 μM): 660% | activation at 0.01 µM ([1]; Test 2, 0.01 μM): 175% | activation at 0.05 µM ([1]; Test 2, 0.05 μM): 196% | activation at 0.25 µM ([1]; Test 2, 0.25 μM): 820% | inhibition at 0.01 µM ([2]; Test 1, 0.01 μM): 29.1% | inhibition at 0.05 µM ([2]; Test 1, 0.05 μM): 48.6% | inhibition at 0.25 µM ([2]; Test 1, 0.25 μM): 70.3% | inhibition at 0.01 µM ([2]; Test 2, 0.01 μM): 21% | inhibition at 0.05 µM ([2]; Test 2, 0.05 μM): 15% | inhibition at 0.25 µM ([2]; Test 2, 0.25 μM): 49% | activation at 0.01 µM (Rat Adipose Tissue; Test 1, 0.01 μM): 45% | activation at 0.05 µM (Rat Adipose Tissue; Test 1, 0.05 μM): 173% | activation at 0.25 µM (Rat Adipose Tissue; Test 1, 0.25 μM): 290% | activation at 0.01 µM (Rat Adipose Tissue; Test 2, 0.01 μM): 49% | activation at 0.05 µM (Rat Adipose Tissue; Test 2, 0.05 μM): 154% | activation at 0.25 µM (Rat Adipose Tissue; Test 2, 0.25 μM): 216% | activation at 0.01 µM ([3]; Test 1, 0.01 μM): 670% | activation at 0.01 µM ([3]; Test 2, 0.01 μM): 600%

Cn1c(=O)c2c(ncn2CCCNCC(O)c2cc(O)cc(O)c2)n(C)c1=O (centres unmarked) [VI, Reproterol]
activation at 0.01 µM ([1]; Test 1, 0.01 μM): 20% | activation at 0.05 µM ([1]; Test 1, 0.05 μM): -7% | activation at 0.25 µM ([1]; Test 1, 0.25 μM): 0% | activation at 0.01 µM ([1]; Test 2, 0.01 μM): 8% | activation at 0.05 µM ([1]; Test 2, 0.05 μM): 21% | activation at 0.25 µM ([1]; Test 2, 0.25 μM): 3% | inhibition at 0.01 µM ([2]; Test 1, 0.01 μM): 0% | inhibition at 0.05 µM ([2]; Test 1, 0.05 μM): 0% | inhibition at 0.25 µM ([2]; Test 1, 0.25 μM): 8.6% | inhibition at 0.01 µM ([2]; Test 2, 0.01 μM): -3% | inhibition at 0.05 µM ([2]; Test 2, 0.05 μM): 12% | inhibition at 0.25 µM ([2]; Test 2, 0.25 μM): 25% | activation at 0.01 µM (Rat Adipose Tissue; Test 1, 0.01 μM): 63% | activation at 0.05 µM (Rat Adipose Tissue; Test 1, 0.05 μM): 86% | activation at 0.25 µM (Rat Adipose Tissue; Test 1, 0.25 μM): 86% | activation at 0.01 µM (Rat Adipose Tissue; Test 2, 0.01 μM): 13% | activation at 0.05 µM (Rat Adipose Tissue; Test 2, 0.05 μM): 16% | activation at 0.25 µM (Rat Adipose Tissue; Test 2, 0.25 μM): 13% | Gain ([4]; Test 2, control 7.5): 8.3 g/day | Feed Intake ([4]; Test 2, control 19.3): 21.2 g/day | Weight ([4]; Test 2, control 202.3): 213.4 g | Carcass Composition % of Change over Control, Fat ([4]; Test 2): 2.5% | Carcass Composition % of Change over Control, Protein ([4]; Test 2): 0.5% | activation at 0.05 µM ([3]; Test 1, 0.05 μM): 130% | activation at 0.25 µM ([3]; Test 1, 0.25 μM): 465% | activation at 0.01 µM ([3]; Test 2, 0.01 μM): -14% | activation at 0.05 µM ([3]; Test 2, 0.05 μM): 129% | activation at 0.25 µM ([3]; Test 2, 0.25 μM): 700%

CC(C)(C)NCC(O)c1ccc(O)c(CO)n1 (centres unmarked) [VII, Pirbuterol]
Gain ([4]; Test 1, control 7.3): 8.0 g/day | Feed Intake ([4]; Test 1, control 18.6): 19.8 g/day | Weight ([4]; Test 1, control 191.8): 200.9 g | Carcass Composition % of Change over Control, Fat ([4]; Test 1): -8.7% | Carcass Composition % of Change over Control, Protein ([4]; Test 1): 3.6%

CC(C)N[C@H]1CCc2c(ccc(O)c2CO)[C@@H]1O.Cl [VIII]
percent increase compared to control, glycerol production ([1]; Test 1, 0.01 μM): 13% | percent increase compared to control, glycerol production ([1]; Test 1, 0.05 μM): 147% | percent increase compared to control, glycerol production ([1]; Test 1, 0.25 μM): 180% | percent increase compared to control, glycerol production ([1]; Test 2, 0.01 μM): 61% | percent increase compared to control, glycerol production ([1]; Test 2, 0.05 μM): 59% | percent increase compared to control, glycerol production ([1]; Test 2, 0.25 μM): 460% | percent change compared to control, 14C acetate incorporation in fatty acids ([2]; Test 2, 0.01 μM): 26% | percent change compared to control, 14C acetate incorporation in fatty acids ([2]; Test 2, 0.05 μM): -9% | percent change compared to control, 14C acetate incorporation in fatty acids ([2]; Test 2, 0.25 μM): -34% | percent increase compared to control, glycerol production (Rat Adipose Tissue; Test 1, 0.01 μM): 19% | percent increase compared to control, glycerol production (Rat Adipose Tissue; Test 1, 0.05 μM): 26% | percent increase compared to control, glycerol production (Rat Adipose Tissue; Test 1, 0.25 μM): 21% | percent increase compared to control, glycerol production (Rat Adipose Tissue; Test 2, 0.01 μM): -7% | percent increase compared to control, glycerol production (Rat Adipose Tissue; Test 2, 0.05 μM): 4% | percent increase compared to control, glycerol production (Rat Adipose Tissue; Test 2, 0.25 μM): 7% | Feed Conversion ([4]; Test 1, control 2.55): 2.41 | Gain ([4]; Test 1, control 7.3): 8.1 g/day | Feed Intake ([4]; Test 1, control 18.6): 19.5 g/day | Weight ([4]; Test 1, control 191.8): 202.6 g | Carcass Composition % of Change over Control, Fat ([4]; Test 1): -6.1% | Carcass Composition % of Change over Control, Protein ([4]; Test 1): 6.4% | percent increase compared to control, glycerol production ([3]; Test 1, 0.01 μM): 135% | percent increase compared to control, glycerol production ([3]; Test 1, 0.05 μM): 445% | percent increase compared to control, glycerol production ([3]; Test 1, 0.25 μM): 565% | percent increase compared to control, glycerol production ([3]; Test 2, 0.01 μM): 71% | percent increase compared to control, glycerol production ([3]; Test 2, 0.05 μM): 1143% | percent increase compared to control, glycerol production ([3]; Test 2, 0.25 μM): 1800%
